Results from ChEMBL document CHEMBL3137667, “[Drug-induced liver injury; fourteenth updated edition of the bibliographic database of liver injuries and related drugs]” (Gastroenterol Clin Biol, 2004).

What was measured:
[1] = Times to onset, minimal and maximal, observed in the indexed observations. [column 'DELAI' in source]; settings: human
[2] = human
[3] = human; remark: listed apart in the source
[4] = human; remark: listed apart in the source
[5] = human, serum
[6] = human, serum, 4383 h
[7] = human; remark: listed apart in the source
[8] = Comments (NB not yet translated). [column 'COMMENTAIRES' in source]; settings: human
[9] = Highest frequency of moderate liver toxicity observed during clinical trials, expressed as a percentage. [column '% BIOL' in source]; settings: human
[10] = human; remark: listed apart in the source
[11] = human, serum; remark: listed apart in the source
[12] = human; remark: listed apart in the source
[13] = Highest frequency of acute liver toxicity observed during clinical trials, expressed as a percentage. [column '% AIGUE' in source]; settings: human
[14] = human; remark: listed apart in the source
[15] = human; remark: listed apart in the source
[16] = human; remark: listed apart in the source
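Wherever Hepatotoxicity (association with vascular disease) is given: count of indexed literature references reporting vascular liver injury in humans, e.g. peliosis hepatitis, hepatic veno-occlusive disease or Budd-Chiari syndrome.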
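Wherever Hepatotoxicity (benign tumour) is given: value is a count of indexed literature references citing a benign tumour confirmed by histopathology.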
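Wherever Hepatotoxicity (choleostasis) is given: human cholestatic liver injury, shown by histopathology or by peak ALT or AST elevation over alkaline phosphatase ratio below 2, value counts indexed literature reports.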
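Wherever Hepatotoxicity (chronic liver disease) is given: chronic liver injury confirmed by histopathology or persistently raised serum aminotransferase activity beyond 6 months, value given as the count of indexed literature references.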
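Wherever Hepatotoxicity (cirrhosis) is given: value is a count of indexed literature references reporting cirrhosis confirmed by histopathology.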
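Wherever Hepatotoxicity (cytolytic) is given: human cytolytic liver injury, shown by histopathology or by a ratio above 5 of peak ALT or AST elevation to alkaline phosphatase elevation, value counts indexed references.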
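Wherever Hepatotoxicity (granulomatous hepatitis) is given: value is a count of indexed literature references reporting granulomatous liver disease confirmed by histopathology.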
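Wherever Hepatotoxicity (malignant tumour) is given: malignant tumour confirmed by histopathology, value gives the count of indexed literature references reporting it.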
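Wherever Hepatotoxicity (severe hepatitis) is given: human clinical data: severe hepatitis, meaning potentially life-threatening liver failure or clinically observed cases, the value counts how many indexed literature references report it.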
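Wherever Hepatotoxicity (steatosis) is given: steatosis confirmed by histopathology, value is the count of indexed references.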

Compound | Hepatotoxicity (time to onset) [1] | Hepatotoxicity (granulomatous hepatitis) [2] | Hepatotoxicity (steatosis) [3] | Hepatotoxicity (severe hepatitis) [4] | Hepatotoxicity (acute) [5] | Hepatotoxicity (chronic liver disease) [6] | Hepatotoxicity (association with vascular disease) [7] | Hepatotoxicity (comment) [8] | Hepatotoxicity (moderate) [9] [%] | Hepatotoxicity (cirrhosis) [10] | Hepatotoxicity (moderate) [11] | Hepatotoxicity (choleostasis) [12] | Hepatotoxicity (acute) [13] [%] | Hepatotoxicity (benign tumour) [14] | Hepatotoxicity (malignant tumour) [15] | Hepatotoxicity (cytolytic) [16] | also measured
CCOC(=O)C1=C(C)NC(C)=C(C(=O)OC)C1c1cccc([N+](=O)[O-])c1 (centres undefined) [NITRENDIPINE] | 3 weeks | 0 | 0 | 0 | 1 | 0 | 0 | AC_ANTI-N | 18.2 | 0 | 2 | 0 | 0 | 0 | 0 | 0 | 
CCOc1ccc2ccccc2c1C(=O)N[C@@H]1C(=O)N2[C@@H]1SC(C)(C)[C@@H]2C(=O)O [NAFCILLIN] | 1 day - 2 weeks | 0 | 0 | 0 | 5 | 0 | 0 | RC/OXACILLINE/CEFALOTINE | 25 | 0 | 4 | 3 | 3.1 | 0 | 0 | 1 | 
CC(C(=O)O)c1cccc(Oc2ccccc2)c1 (centres undefined) [FENOPROFEN] | 1 week - 7 weeks | 0 | 0 | 0 | 3 | 0 | 0 | RC/NAPROXENE | 7 | 0 | 1 | 1 | 0 | 0 | 0 | 2 | 
C[C@]12C=CC(=O)C=C1CC[C@@H]1[C@@H]2[C@@H](O)C[C@@]2(C)[C@H]1CC[C@]2(O)C(=O)CO [PREDNISOLONE] | 6 days - 8 years | 0 | 2 | 2 | 2 | 0 | 0 | AGGRAVATION_ANGIOMES | 0 | 0 | 0 | 0 | 0 | 1 | 0 | 2 | 
GONADOTROPIN, SERUM | 39 days - 6 months | 0 | 0 | 0 | 1 | 0 | 0 | HNF | 0 | 0 | 0 | 0 | 0 | 1 | 0 | 1 | 
Cc1ccc(O)c2ncccc12 [TILIQUINOL] | 4 days | 1 | 0 | 0 | 1 | 0 | 0 | CHOLANGITE | 0 | 0 | 0 | 0 | 0 | 0 | 0 | 0 | 
Cc1nc2n(c(=O)c1CCN1CCC(c3noc4cc(F)ccc34)CC1)CCCC2 [RISPERIDONE] | 2 days - 1 year | 0 | 4 | 0 | 6 | 0 | 0 | PERICHOLANGITE HYPERBILIRUBINEMIE | 6 | 0 | 4 | 2 | 4 | 0 | 0 | 5 | 
c1ccc(C2(c3ccccc3)CC2C2=NCCN2)cc1 (centres undefined) [CIFENLINE] | 47 days - 5.5 months | 0 | 0 | 0 | 2 | 0 | 0 | CHOLANGITE | 4.1 | 0 | 2 | 0 | 0 | 0 | 0 | 2 | 
CCC1=C(C)CN(C(=O)NCCc2ccc(S(=O)(=O)NC(=O)N[C@H]3CC[C@H](C)CC3)cc2)C1=O [GLIMEPIRIDE] | 2.5 months - 3.3 months | 0 | 0 | 0 | 2 | 0 | 0 | CHOLANGIOLITE | 0 | 0 | 0 | 1 | 0 | 0 | 0 | 1 | 
O=C(O)c1cc(/N=N/c2ccc(O)c(C(=O)O)c2)ccc1O [OLSALAZINE] | 3 weeks | 0 | 0 | 0 | 1 | 0 | 0 | RC/SULFASALAZINE | 15 | 0 | 1 | 1 | 0 | 0 | 0 | 1 | 
CCO.CN1CCC[C@H]1c1cccnc1 | 8 months - 10 years |  | 0 |  | 3 | 1 | 0 | CHOLANGITE |  | 0 | 2 |  |  | 0 | 0 |  | Hepatotoxicity (granulomatous hepatitis) ([2]; Liver): 0; Hepatotoxicity (severe hepatitis) ([4]; Liver): 0; Hepatotoxicity (moderate) ([9]; Liver): 4%; Hepatotoxicity (choleostasis) ([12]; Liver): 2; Hepatotoxicity (acute) ([13]; Liver): 0%; Hepatotoxicity (cytolytic) ([16]; Liver): 1
CSc1ccc2c(c1)N(CCC1CCCCN1C)c1ccccc1S2 (centres undefined) [THIORIDAZINE] | 1 week - 1 year | 0 | 0 |  | 5 | 1 | 0 | RC/CHLORPROMAZINE |  | 0 | 2 | 5 |  | 0 | 0 | 2 | Hepatotoxicity (severe hepatitis) ([4]; Liver): 1; Hepatotoxicity (moderate) ([9]; Liver): 0%; Hepatotoxicity (acute) ([13]; Liver): 0%
O=C(CCNNC(=O)c1ccncc1)NCc1ccccc1 [NIALAMIDE] | 3 weeks | 0 | 1 | 0 | 2 | 0 | 0 | RC/PHENIPRAZINE | 0 | 0 | 0 | 1 | 0 | 0 | 0 | 2 | 
Cc1c(O)cccc1C(=O)N[C@@H](CSc1ccccc1)[C@H](O)CN1C[C@H]2CCCC[C@H]2C[C@H]1C(=O)NC(C)(C)C | 47 days - 17 months | 0 | 0 | 0 | 3 | 0 | 0 | REACTIVATION_HVB | 27 | 0 | 4 | 0 | 7.4 | 0 | 0 | 3 | 
